Measured values reported in patent US12589090B2, “Compounds and methods for the treatment of degenerative disorders” (Aquilus Pharmaceuticals, Inc., priority 2019, dated 2026).
Entries after “also recorded” stand apart in the source; their conditions may differ.

Test system: SNL rats
Experiment: Spinal nerve ligation (SNL) rat model, mechanical allodynia by von Frey paw withdrawal threshold (Example 17)
Type: in vivo, Sprague Dawley rats
Settings: 160 mg/Kg PO once per day for 5 days, 60 min after dosing, vs. vehicle control, p<0.05
Procedure: A total of 90 male Sprague Dawley rats (200-225 g) from Envigo (Indianapolis, IN) were used in the study. The 90 rats were assembled into four groups that would be orally dosed (PO) with vehicle, Gabapentin and Compound 118 as follows: • Group 1=Sham+Vehicle, n=20 rats • Group 2=SNL+Vehicle, n=40 rats • Group 3=SNL+Compound 118 (160 mg/Kg), n=20 rats • Group 4=SNL+Gabapentin (100 mg/Kg), n=10 rats
Under general anesthesia with continuous inhalation of isoflurane, surgery was performed with aseptic procedures. The skin at the area of the lower lumber and sacral level of the rat was shaved and disinfected with betadine and alcohol. A left longitudinal incision at the level next to the vertebral column was made and the left paraspinal muscles were separated. The transverse process of L6 was removed and nearby connective tissue cleaned to expose L5 and L6 spinal nerves. After the nerves were isolated and clearly visualized, 4-0 silk threads were used to ligate the left L5. The muscles were sutured with 4-0 silk threads and the wound closed by staples. […] Each rat was monitored until awake and moving freely around the recovery chamber. […]
The mechanical allodynia of the rodents were measured by applying von Frey (VF) filaments (Stoelting, Wood Dale, IL) of ascending bending force to the plantar surface of the hind paws, ipsilateral and contralateral to the surgical manipulation. […]

[2H]C([2H])([2H])c1ccc(C#Cc2ccc(S(=O)(=O)N[C@H](Cc3c[nH]c4ccccc34)C(=O)O)s2)cc1 [Compound 118, (R)-3-(1H-Indol-3-yl)-2-[5-(4-trideuteromethyl-phenylethynyl)-thiophene-2-sulfonylamino]-propionic acid-(D3, 98%)] was tested, and the “mechanical allodynia (ipsilateral paw withdrawal threshold, von Frey)” value was “reduce mechanical allodynia in a statistical manner; also recorded: statistically significant decrease in mechanical allodynia”.
